Data as given in US11672775B2, “Treprostinil prodrugs” (United Therapeutics Corporation, priority 2016, dated 2023).
Values belong to the compound of their own block, whether it stands above or below them.

How the values were obtained:
in vitro = conditions: monkey, liver microsomes, pH 7.4
[1] = In vitro metabolic stability in liver microsomes; conditions: Rat
[2] = In vitro metabolic stability in liver microsomes; conditions: Monkey; +NADPH
Sprague Dawley rats [3] = experiment: Rat intraplantar injection model, thermal pain sensitivity (Example 10); assay type: in vivo, Sprague Dawley rat
Description: (§1) Male Sprague Dawley rats (n=56) were allocated into 7 groups of 8 animals per group. […] Each group was compared to the phosphate buffer (50-mM phosphate buffer with 50-mM sodium chloride at pH=7.4) treated group, which served as the control (Group 1).
(§2) Animals were administered 0.1 mL of test material by subcutaneous injection into the paw pad (Intraplantar injection) at time zero. Then, the animals were subsequently evaluated for their response to mechanical (von Frey filaments) and thermal stimuli, 15 and 90 minutes post-injection. The von Frey test was conducted prior to the thermal test, which followed immediately within minutes for each animal. In addition, clinical observation scoring of the animal's reaction to injection was conducted.
(§3) The sensitivity of animals to a thermal pain stimulus was assessed immediately following the von Frey test. The time until withdrawal of the right-injected leg from a heat source was measured, and the lower (faster) the time of response represents a greater sensitivity to the stimulus. The test was performed 15 and 90 minutes post-test item injection.

Sprague Dawley rats [4] = experiment: Clinical observations following subcutaneous injection (Example 12); assay type: in vivo, Sprague Dawley rat; conditions: 3, 10, or 30 mg/kg SC; some animals; approximately 4 hours
Description: (§4) Clinical observations were performed at approximately 6 hours prior to dosing, at the completion of dosing and at approximately 4 hours postdosing.

Sprague Dawley rats [5] = experiment: Cardiovascular assessment by radiotelemetry following subcutaneous injection (Example 12); assay type: in vivo, Sprague Dawley rat
Description: as §4

Sprague Dawley rats [6] = experiment: Rat intraplantar injection model, clinical observation score (Example 9); assay type: in vivo, Sprague Dawley rat
Description: (§5) Male Sprague Dawley rats (n=112) were allocated into 14 groups of 8/group. The study was run in 2 cycles, on consecutive days, 7 groups per cycle. Each cycle was composed of a Saline group, PBS group, which served as the control, and also treprostinil at a dose of 100 μg/mL or 1 μg/mL.
as §2, with “Animals” for “Then, the animals”, “conducted. FIG. 16 schematically illustrates the study design.” for “conducted.”
A Clinical observation score was assigned by assessing for redness, swelling and paw placement.

Sprague Dawley rats [7] = experiment: Rat intraplantar injection model, von Frey test (Example 10); assay type: in vivo, Sprague Dawley rat; conditions: 1 μg/mL or 100 μg/mL; 15 and 90 minutes post-injection
Description: as §1, §2
Mechanical pain sensitivity was tested using the von Frey test, which measures the withdrawal force threshold of the animals. The lower the force applied represents a greater sensitivity to the stimulus. The von Frey test was performed 15 and 90 minutes post-test item injection.

Sprague Dawley rats [8] = experiment: Rat intraplantar injection model, clinical observation score (Example 10); assay type: in vivo, Sprague Dawley rat; conditions: 1 μg/mL; both time-points; compared with similar dose of treprostinil
Description: as §1, §2
A clinical observation score was assigned by assessing for redness, swelling and paw placement.

Sprague Dawley rats [9] = experiment: Rat intraplantar injection model, von Frey test (Example 9); assay type: in vivo, Sprague Dawley rat; conditions: for von Frey withdrawal force threshold vs PBS-treated group: both time points post-injection
Description: as §5
as §2, with “Animals” for “Then, the animals”, “conducted. FIG. 16 schematically illustrates the study design.” for “conducted.”
Mechanical pain sensitivity was tested using the von Frey test, which measures the withdrawal force threshold of the animals. The lower the force applied represents a greater sensitivity to the stimulus. The von Frey test was performed 15 and 90 minutes post-Test Item injection.

Sprague Dawley rats [10] = experiment: Rat intraplantar injection model, thermal pain sensitivity (Example 9); assay type: in vivo, Sprague Dawley rat; conditions: 100 μg/mL; both time points
Description: as §5
as §2, with “Animals” for “Then, the animals”, “conducted. FIG. 16 schematically illustrates the study design.” for “conducted.”
as §3, with “post-Test Item” for “post-test item”

[11] = only the 1 μg/mL dose, both time points

half-life at 500 nM (in vitro): > 6 h | Half-life ([1]; +NADPH): 0.0982 h | Half-life ([1]; −NADPH): >6 h | Half-life [2]: 2.00 min
Compound: CCOc1ccc2ccc(=O)oc2c1 [Prodrug 7-EC, 7-ethoxycoumarin]

clinical score (Sprague Dawley rats [6]; 100 μg/mL (cycle 1), 15 min): non-zero | clinical score vs PBS group (Sprague Dawley rats [6]; 100 μg/mL (cycle 1), 90 minutes post-injection): non-zero | clinical score vs similar dose of treprostinil (Sprague Dawley rats [6]; [11]): reduced clinical score | von Frey withdrawal force threshold vs phosphate buffer group (Sprague Dawley rats [7]): reduced withdrawal force threshold | clinical score (Sprague Dawley rats [8]): lower values of clinical score | von Frey withdrawal force threshold vs PBS-treated group (Sprague Dawley rats [9]; 1 μg/mL): no statistically significant difference | sensitivity to mechanical stimulation vs similar dose of treprostinil (Sprague Dawley rats [9]; [11]): reduced sensitivity
Compound: CCCCC[C@H](O)CC[C@@H]1[C@H]2Cc3cccc(OCC(=O)NCC(=O)O)c3C[C@H]2C[C@H]1O [Prodrug VII]
sensitivity to thermal stimulation (Sprague Dawley rats [3]; 1 μg/mL, both time-points, compared with similar dose of treprostinil): reduced sensitivity to thermal stimulation | thermal paw withdrawal time vs phosphate buffer treated group (Sprague Dawley rats [3]; 100 μg/mL, 15 minutes post-administration): statistically significantly faster paw withdrawal time | clinical observations (Sprague Dawley rats [4]): flushed body and/or extremities, piloerection, hypoactivity, reddened forelimb(s) and/or hindlimb(s), wet yellow material on the urogenital area and ventral trunk, and dried red material around nose | diastolic blood pressure change (Sprague Dawley rats [5]; 0.1 mg/kg SC (for Prodrug VII)): No meaningful change | mean blood pressure change (Sprague Dawley rats [5]; 0.1 mg/kg SC (for Prodrug VII)): No meaningful change | systolic blood pressure change (Sprague Dawley rats [5]; 0.1 mg/kg SC (for Prodrug VII)): No meaningful change | body temperature change (Sprague Dawley rats [5]; 1 mg/kg SC): No significant changes | diastolic blood pressure change (Sprague Dawley rats [5]; 3 mg/kg SC): Marginally lower | diastolic blood pressure lowering persisted through (Sprague Dawley rats [5]; 3 mg/kg SC): 80 min | diastolic blood pressure, time of nadir (Sprague Dawley rats [5]; 3 mg/kg SC): 50 min | hypothermic response persisted through (Sprague Dawley rats [5]; 3 mg/kg SC): 4 h | mean blood pressure change (Sprague Dawley rats [5]; 3 mg/kg SC): Marginally lower | mean blood pressure, time of nadir (Sprague Dawley rats [5]; 3 mg/kg SC): 50 min | systolic blood pressure change (Sprague Dawley rats [5]; 3 mg/kg SC): Marginally lower | systolic blood pressure, time of nadir (Sprague Dawley rats [5]; 3 mg/kg SC): 50 min | diastolic hypotension persisting through (Sprague Dawley rats [5]; 10 mg/kg SC): approximately 4 hours | mean blood pressure hypotension persisting through (Sprague Dawley rats [5]; 10 mg/kg SC): approximately 4 hours | pulse pressure change (Sprague Dawley rats [5]; 10 mg/kg SC): Marginally higher | systolic hypotension persisting through (Sprague Dawley rats [5]; 10 mg/kg SC): approximately 4 hours | systolic hypotension persisting through (Sprague Dawley rats [5]; 30 mg/kg SC): ~6 h | time without recovery of body temperature (Sprague Dawley rats [5]; 30 mg/kg SC): > 24 h | body temperature change (Sprague Dawley rats [5]; 3, 10, and 30 mg/kg SC): Significantly lower | diastolic blood pressure change (Sprague Dawley rats [5]; 10 and 30 mg/kg SC): Significantly lower | diastolic blood pressure, earliest time point of lowering (Sprague Dawley rats [5]; 10 and 30 mg/kg SC): 20 min | diastolic blood pressure, time of nadir (Sprague Dawley rats [5]; 10 and 30 mg/kg SC): 40 min | mean blood pressure change (Sprague Dawley rats [5]; 10 and 30 mg/kg SC): Significantly lower | mean blood pressure, time of nadir (Sprague Dawley rats [5]; 10 and 30 mg/kg SC): 40 min | systolic blood pressure change (Sprague Dawley rats [5]; 10 and 30 mg/kg SC): Significantly lower | systolic blood pressure, earliest time point of lowering (Sprague Dawley rats [5]; 10 and 30 mg/kg SC): 20 min | systolic blood pressure, time of nadir (Sprague Dawley rats [5]; 10 and 30 mg/kg SC): 40 min | dose resulting in significantly lower body temperature (Sprague Dawley rats [5]; single SC injection): ≥ 3 mg/kg | dose resulting in significantly lower systolic, diastolic, mean arterial blood pressure (Sprague Dawley rats [5]; single SC injection): ≥ 3 mg/kg | heart rate change (Sprague Dawley rats [5]; single SC injection, all doses): Higher heart rates | clinical score vs PBS group (Sprague Dawley rats [6]; 100 μg/mL, both time points): statistically significant increase in the clinical score | von Frey withdrawal force threshold vs PBS-treated group (Sprague Dawley rats [9]; 100 μg/mL): statistically significant increased sensitivity | thermal paw withdrawal time vs PBS group (Sprague Dawley rats [10]): trend toward reduction in the time of response
